The assay concerns MDA-MB-231 cells. Briefly: Tumour cell killing using antibody-Saporin conjugates (XTT/PMS viability). The assay is classed as cell-based, human. As for the experimental part: For generation of immunotoxin, the chimeric MAb was non-covalently coupled to a plant toxin Saporin using FabFc-ZAP human conjugate (4.5 nM final concentration) (Advanced Targeting Systems, Cat. no. IT-65). The effect of chAb-Saporin internalization on tumour cell viability was tested using Axl-positive tumour cell line MDA-MB-231 (human triple negative breast carcinoma). Eight hundred cells were seeded per well in 96-well plates in DMEM/F-12 media supplied with 10% FBS, L-glutamine (4 mM), streptomycin (5 μg/ml) and penicillin (5 U/ml) and allowed to attach for 16 hours. The cells were incubated with different dilutions of immunotoxin chAb-Saporin for 72 hrs. The viability of the cells was determined by performing an XTT/PMS assay using a CLARIOstar® microplate reader (BMG LABTECH)
Unconjugated Saporin and an isotype control antibody (human IgG1) coupled to Saporin (control SAP) were used as negative controls.
Tumour cell killing using antibody-Saporin conjugates performed as described in Example 20. A comparison of two variants of humanised 10G5 and YW327.6S2 was performed.
For orientation: Tetrazolium assays rely on reduction of a dye to a coloured formazan, in cell work by metabolically active cells.

pEC50: −log10 of the molar value. Where two headings read alike, the source gives them in different places.

Drawing on patent publication US11732048B2, “Anti-axl antagonistic antibodies” (BERGEN TEKNOLOGIOVERFØRING AS, priority 2016, dated 2023), this text covers EC50 for one substance.

As to Saporin, the pEC50 runs as follows: (Table 4, antibody coupled to Saporin via FabFc-ZAP, MDA-MB-231, 72 hrs, read-out: EC50 (effective concentration leading to 50% cell killing)) 7.00; (Table 5, antibody-Saporin conjugates as in Example 20, MDA-MB-231, read-out: EC50 (cell killing)) 6.61.
